Laboratory results taken from the supplement of paper PMC10307832.

Key:
Experiment in all cases: relative viability (nuclei count vs DMSO), 5 days (fraction); higher = more cells survive
[1] = compound: C(C(=O)C(=O)O)Br [Bromopyruvate] + C[C@]1(O)C[C@@H](c2nc(-c3ccc4ccc(-c5ccccc5)nc4c3)c3c(N)nccn32)C1 [Linsitinib] (partner 1 µM)
Method in brief: (§1)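 Relative viability is defined as nuclei in treated wells over nuclei in vehicle wells. Duplicate plates were run and medians reported. Lung cancer cell lines in 1536-well plates were dosed by pin tool one day after seeding, with one drug or with a fixed anchor-drug dose plus five library-drug doses (not always all listed) in √10 steps, and nuclei were counted after 5 days.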

[2] = compound: C(C(=O)C(=O)O)Br [Bromopyruvate] + COc1cc2c(Oc3ccc(NC(=O)C4(C(=O)Nc5ccc(F)cc5)CC4)cc3F)ccnc2cc1OCCCN1CCOCC1 [Foretinib] (partner 0.25 µM)
Method in brief: as §1

[3] = compound: CC(O)(CS(=O)(=O)c1ccc(F)cc1)C(=O)Nc1ccc(C#N)c(C(F)(F)F)c1 [Bicalutamide] + CS(=O)(=O)N1CCN(Cc2cc3nc(-c4cccc5[nH]ncc45)nc(N4CCOCC4)c3s2)CC1 [Pictilisib] (partner 1 µM)
Method in brief: as §1

[4] = compound: C(C(=O)C(=O)O)Br [Bromopyruvate] + C[C@@H](Oc1cc(-c2cnn(C3CCNCC3)c2)cnc1N)c1c(Cl)ccc(F)c1Cl [Crizotinib] (partner 1 µM)
Method in brief: as §1

Cell Line | relative viability ([1]; first compound 1 µM) | relative viability ([1]; first compound 3.162 µM) | relative viability ([1]; first compound 10 µM) | relative viability ([1]; first compound 31.62 µM) | relative viability ([1]; first compound 100 µM) | relative viability ([2]; first compound 1 µM) | relative viability ([2]; first compound 3.162 µM) | relative viability ([2]; first compound 10 µM) | relative viability ([2]; first compound 31.62 µM) | relative viability ([2]; first compound 100 µM) | relative viability ([3]; first compound 0.08 µM) | relative viability ([3]; first compound 0.253 µM) | relative viability ([3]; first compound 0.8 µM) | relative viability ([3]; first compound 2.53 µM) | relative viability ([4]; first compound 1 µM) | relative viability ([4]; first compound 3.162 µM) | relative viability ([4]; first compound 10 µM) | relative viability ([4]; first compound 31.62 µM) | relative viability ([4]; first compound 100 µM)
HCC-15 | 0.84 | 0.867 | 0.924 | 0.824 | 0.899 | 1 | 1.05 | 1.07 | 1.08 | 1.02 | 0.714 | 0.699 | 0.951 | 0.77 | 0.823 | 0.898 | 0.793 | 0.817 | 0.905
A-427 | 1.05 | 1.05 | 1.03 | 1.15 | 1.14 | 0.983 | 1.21 | 1.18 | 0.799 | 0.885 | 0.676 | 0.812 | 0.867 | 0.628 | 0.878 | 0.873 | 0.82 | 0.741 | 0.793
NCI-H23 | 0.484 | 0.584 | 0.661 | 0.54 | 0.51 | 0.895 | 0.851 | 0.983 | 0.885 | 0.296 | 0.476 | 0.446 | 0.633 | 0.378 | 0.386 | 0.514 | 0.514 | 0.494 | 0.423
NCI-H1734 | 0.837 | 0.949 | 0.989 | 0.852 | 0.905 | 0.888 | 0.923 | 1.03 | 0.807 | 0.824 | 0.438 | 0.388 | 0.593 | 0.431 | 0.67 | 0.68 | 0.803 | 0.67 | 0.659
NCI-H1993 | 0.739 | 0.678 | 0.707 | 0.717 | 0.7 | 0.84 | 0.817 | 0.939 | 0.764 | 0.774 |  | 0.764 | 0.744 | 0.671 | 1.25 | 0.931 | 0.899 | 0.84 | 0.867
PC-3 [JPC-3] | 1.02 | 0.975 | 0.943 | 0.914 | 1.01 | 1.16 | 1.03 | 1.12 | 0.976 | 1.03 | 0.76 | 0.56 | 0.822 | 0.723 | 1.03 | 1 | 0.944 | 1.01 | 0.983
NCI-H1915 | 1.12 | 1.15 | 1.09 | 1.09 | 1.1 | 1.03 | 1.08 | 1.09 | 1 | 1.12 | 0.91 | 0.782 | 1 | 0.775 | 0.836 | 0.862 | 0.885 | 0.923 | 0.878
NCI-H1666 | 0.736 | 0.764 | 0.783 | 0.744 | 0.86 | 0.994 | 1.05 | 1.03 | 1 | 0.936 | 0.392 | 0.404 | 0.477 | 0.406 | 0.993 | 0.907 | 0.963 | 1.18 | 0.857
HCC-366 | 0.615 | 0.848 | 0.765 | 0.769 | 0.54 | 0.927 | 0.976 | 0.961 | 0.759 | 0.963 | 0.124 | 0.101 | 0.147 | 0.0426 | 0.569 | 0.54 | 0.947 | 0.548 | 0.474
SK-MES-1 | 1.07 | 1.05 | 1.08 | 0.941 | 1.06 | 0.964 | 0.962 | 0.938 | 0.75 | 1.17 | 0.351 | 0.39 | 0.382 | 0.357 | 0.974 | 0.952 | 1.02 | 0.997 | 1.05
NCI-H727 | 0.307 | 0.495 | 0.296 | 0.291 | 0.283 | 0.9 | 1.08 | 0.728 | 0.93 | 0.802 | 0.415 | 0.456 | 0.377 | 0.423 | 0.996 | 0.89 | 0.844 | 0.739 | 0.83
RERF-LC-KJ | 0.885 | 0.935 | 0.952 | 0.906 | 0.933 | 0.843 | 0.918 | 0.962 | 0.818 | 0.869 | 0.628 | 0.506 | 0.634 | 0.613 | 0.771 | 0.82 | 0.855 | 0.813 | 0.891
NCI-H1623 |  |  |  |  |  | 0.897 | 0.879 | 0.99 | 0.927 | 0.987 |  |  |  |  |  |  |  |  | 
Calu-6 | 0.889 | 1.04 | 1.09 | 0.926 | 0.958 | 0.9 | 0.891 | 0.938 | 0.856 | 0.613 | 1.06 | 0.87 | 1.04 | 0.839 | 0.659 | 0.843 | 0.938 | 0.79 | 0.546
LC-2-ad | 0.825 | 0.93 | 0.869 | 0.842 | 0.909 | 0.922 | 0.99 | 1.01 | 0.914 | 0.988 | 0.536 | 0.459 | 0.637 | 0.502 | 0.218 | 0.47 | 0.458 | 0.52 | 0.469
CAL-12T | 0.789 | 0.732 | 0.899 | 0.828 | 0.845 | 1.14 | 1.05 | 1.09 | 1.07 | 1.06 | 0.394 | 0.415 | 0.454 | 0.345 | 0.663 | 0.663 | 0.743 | 0.48 | 0.505
SK-LU-1 | 1.02 | 1.09 | 1.12 | 0.964 | 1.09 | 0.846 | 0.867 | 0.954 | 0.671 | 0.799 | 0.6 | 0.503 | 0.715 | 0.59 | 1.05 | 0.99 | 0.831 | 0.856 | 0.794
NCI-H1650 |  |  |  |  |  | 1.16 | 1.25 | 1.12 | 1.42 | 0.747 | 0.701 | 0.502 | 0.825 | 0.597 | 0.898 | 1.24 | 0.942 | 0.922 | 0.56
